# Measurements taken from ChEMBL document CHEMBL5727087, “Inhibitors of lysine gingipain” (2018).
# Assay: Inhibition Assay: The specific assay conditions were as follows. Buffer: pH=7.5, 100 mM Tris-HCl, 75 mM NaCl, 2.5 mM CaCl2, 10 mM cysteine, 1% DMSO after all additions. Protein: 0.1 nM Kgp, isolated from culture of Porphyromonas gingivalis, as described in Pike et al. J. Biol. Chem. 1994, 269(1), 406, and Potempa and Nguyen. Current Protocols in Protein Scienc. 2007, 21.20.1-21.20.27. Fluorogenic substrate: 10 uM Z-His-Glu-Lys-MCA. Time=90 minutes. Temperature=37° C. Each compound: 10 concentrations, starting at either 100 uM or 100 nM, with lower concentrations generated by serial 3-fold dilutions. By testing a range of concentrations for each compound, the concentration required to inhibit the activity of lysine gingipain by 50% (the “IC50”) was determined. Under the described assay conditions, signal-to-noise was excellent, and Z factor was greater than 0.6.
smiles,measurement,value
NCCCC[C@H](NC(=O)C1CCCC1)C(=O)COc1c(F)c(F)cc(F)c1F,IC50,< 1 nM
